{"source": "patent US9212349B2", "about": "“Method to produce virus in cultured cells” (priority 2011, dated 2015)", "key": {"[1]": {"tested_on": "VZV", "assay": "Yield of cell-free infectious VZV from infected MRC5 cells, plaque assay on ARPE-19 cells", "assay_type": "cell-based, varicella zoster virus", "settings": "for VZV yield, fold change relative to NT / VZV yield in comparison to no treatment: MOI 1:50, 72 h; for VZV yield in comparison to no treatment: Example 5, lipids at 6 hpi plus 10 μM αT, HSA, OSA 25 μM, sonicated immediately", "experimental": "For this test, MRC5 cells (passage 20-25) were seeded at a density of 300.000 cell/100 mm culture dish and grown in 15 ml of DMEM containing 10% fetal calf serum plus 2 mM glutamax (Invitrogen) at 35° C. A lipid mixture (LM-1, 1 ml/liter medium, Sigma Aldrich #L5146) was added to the cells either at the time of seeding or 1 day after seeding. Three days later, the culture medium was replaced with 10 ml growth medium containing 50 mM sucrose as a stabilizer. The cells were further incubated for 3 days and growth medium was replaced with fresh medium containing no sucrose. After cells reached confluence, they were infected with VZV by adding infected cells (1 infected cell/50 uninfected cells; infected cells were from a preparation frozen in a solution of 10% DMSO plus 90% fetal calf serum and stored in liquid nitrogen). At the time of infection, the cultures were re-fed with DMEM containing 10% fetal calf serum plus 2 mM glutamax. Arachidonic acid (AA)+alpha-tocopherol (αT) or DHA+αT were added at the indicated times. 72 hours after infection, cells were washed twice with PBS, and incubated in 10 ml of PBS containing 50 mM ammonium chloride for 50 minutes at 4° C. The cells were harvested and frozen in PSGC buffer (Harper et al., Arch Virol 143:1163-70, 1998) at −80° C. Infectious virus was subsequently quantified by plaque assay of sonicated cells on ARPE-19 cells (American Type Culture Collection). Results are set out in FIG. 3.\nBriefly, in these repeat experiments, MRC5 cells were infected with VZV at an MOI=1:50. AA, DHA, and αT were added to the cells at 6 hpi as indicated. 72 hours after infection, the cells were harvested into PSGC buffer and frozen at −80° C. for later processing. After thawing, the cells were sonicated and the yield of cell free VZV quantified by standard plaque assay on ARPE-19 cells. Fold change relative to no treatment (NT) is shown. […] The fold-changes are the average of two independent infections.\nIn brief, MRC5 cells were infected with VZV at an M01=1:50. Lipid mixture 1(LM-1) was added to the cells immediately after cell seeding. At 6 hours after infection, up to about 100 μM AA or […] was added to cells together with up to about 10 μM αT. 72 hours after infection, the cells were harvested into PSGC buffer and either frozen at −80° C. and sonicated later for the release of virus (frozen cells) or immediately sonicated after harvesting and supernatants containing the cell-free VZV were frozen at −80° C. (frozen sup.) prior to titration. Cell-free VZV yield was quantified by plaque assay on APRE-19 cells. Fold change relative to no treatment (NT) is shown. The numbers above the bars indicate the amount of virus obtained per ml in the corresponding treatment. The results are set out in FIG. 5.\nBriefly, MRC5 cells were infected with VZV at an MOI=1:50. Six hours after infection cells were treated with indicated combinations of lipids plus 10 μM αT. Hexacosanoic acid (HSA) and octacosanoic acid (OSA) were dissolved in 20 mg/ml α-cyclodextin (Sigma-Aldrich) in PBS by sonication and added to a solution of 10 mg/ml fatty acid-free BSA (Sigma-Aldrich) in PBS (1:1, v/v) to give a stock concentration of 10 mM for each fatty acid. HSA, OSA, and DHA were used at 25 μM, and AA was used at 25 μM. Two sets of fatty acid concentrations was used for combination treatments: DHA, AA, and HSA was either added at concentrations of 25 μM, 100 μM, and 25 μM (high), or 10 μM, 50 μM, and 10 μM (low), respectively. 72 hours after infection, the cells were harvested into PSGC buffer, sonicated immediately and the yield of cell free VZV quantified by plaque assay on ARPE-19 cells. Fold change relative to no treatment (NT) is shown. The fold-changes are the average of two independent infections.\nBriefly, MRC5 cells were grown in DMEM containing 10% fetal calf serum, 2 mM glutamax (Invitrogen) at 35° C. as described in the text. […]"}, "[2]": {"tested_on": "VZV", "assay": "Yield of cell-free infectious VZV from infected MRC5 cells, plaque assay on ARPE-19 cells", "assay_type": "cell-based, varicella zoster virus", "settings": "Example 6; MOI 1:100, 72 hours after infection; HSA, DHA 25 μM, AA 100 μM, with 10 μM α-T; cholesterol 13 μM"}, "[3]": {"tested_on": "HCMV (AD169 strain)", "assay_type": "cell-based, human cytomegalovirus", "settings": "for HCMV yield, fold change relative to no treatment (NT): MRC5, 0.5 IU/cell, additive 2 h after infection, OA/LA/LLA up to 100 μM, EPA 75 μM, DHA 50 μM, AG 250 μM, cholesterol 13 μM; for HCMV yield, fold change relative to no treatment (NT) / HCMV production relative to no treatment: 96 h; for Effect of including the fatty acid on the HCMV yield increase given by aminoguanidine: in the presence of aminoguanidine; for HCMV production relative to no treatment: Example 2, MRC5, 0.5 IU/cell, FIG. 2", "experimental": "Cells were infected with the AD169 strain of HCMV at a multiplicity of 0.5 infectious units/cell, and immediately following a 2-hour adsorption period, cells were fed with medium (Dulbecco's Modified Eagle Medium, DMEM) containing 10% fetal calf serum plus various fatty acids, cholesterol and carbonyl scavenging compound. At 96 hours post infection, infectious virus in the medium was assayed by fluorescent focus assay using antibody to the HCMV IE1 protein.\nBriefly, About 90% confluent MRC5 human fibroblasts were infected with HCMV at a multiplicity of 0.5 IU/cell. Two hours after infection, medium was replaced with fresh medium containing 10% fetal calf serum and either of oleic acid (OA, up to about 100 μM), linoliec acid (LA, up to about 100 μM), α-linolenic acid (LLA, up to about 100 μM), eicosapentaenoic acid (EPA, up to about 75 μM), or docosahexaenoic acid (DHA, up to about 50 μM). The experiment was also performed in the presence of either aminoguanidine (AG, up to about 250 μM) or cholesterol (chol., up to about 13 μM). Virus production at 96 hours after infection was determined by fluorescent focus assay in MRC-5 cells and shown as a fold change relative to no treatment (NT) which was 5×10^5 infectious units. The fold-changes are the average of two independent infections.\nBriefly, about 90% confluent MRC5 fibroblasts were infected with HCMV at a multiplicity of 0.5 IU/cell. Two hours after infection, medium was replaced with fresh medium containing 10% fetal calf serum and α-tocopherol (α-T) or aminoguanidine (AG) at indicated concentrations. Virus production at 96 h after infection was determined by fluorescent focus assay in which MRC-5 cells and shown as a fold change relative to no treatment (NT). The fold-changes are the average of two independent infections. Results are set out in FIG. 2."}, "[4]": {"tested_on": "MRC5 cells", "assay": "Cytotoxicity evident upon visual inspection in VZV-infected MRC5 cells", "assay_type": "cell-based, human", "settings": "100 μM"}, "[5]": {"settings": "25 μM fatty acid at 6 hpi, absence of αT"}}, "data": [{"smiles": "CCCCC/C=C\\C/C=C\\C/C=C\\C/C=C\\CCCC(=O)O", "note": "[AA, Arachidonic acid]", "values": [{"measurement": "VZV yield, fold change relative to NT", "setting": "[1]; [5]", "value": "enhanced the yield of virus"}, {"measurement": "VZV yield, fold change relative to NT", "setting": "[1]; 25 μM fatty acid at 6 hpi, presence of αT", "value": "increased the virus yield"}, {"measurement": "VZV yield, fold change relative to NT", "setting": "[1]; 100 μM fatty acid at 6 hpi, absence of αT", "value": "inhibited virus production"}, {"measurement": "VZV yield, fold change relative to NT", "setting": "[1]; 100 μM fatty acid at 6 hpi, presence of αT", "value": 5, "unit": "fold"}, {"measurement": "VZV yield relative to no treatment", "setting": "[2]", "value": "elevated the yield of VZV"}]}, {"smiles": "CC/C=C\\C/C=C\\C/C=C\\C/C=C\\C/C=C\\C/C=C\\CCC(=O)O", "note": "[DHA, docosahexaenoic acid]", "values": [{"measurement": "HCMV yield, fold change relative to no treatment (NT)", "setting": "[3]", "value": 4.6, "unit": "fold"}, {"measurement": "VZV yield, fold change relative to NT", "setting": "[1]; [5]", "value": "about 1.5 fold"}, {"measurement": "Cytotoxicity", "setting": "[4]; absence of αT", "value": "toxic"}, {"measurement": "Cytotoxicity", "setting": "[4]; presence of αT", "value": "toxic"}]}, {"smiles": "CC/C=C\\C/C=C\\C/C=C\\C/C=C\\C/C=C\\CCCC(=O)O", "note": "[EPA, eicosapentaenoic acid]", "values": [{"measurement": "HCMV yield, fold change relative to no treatment (NT)", "setting": "[3]", "value": 2.5, "unit": "fold"}]}, {"smiles": "CCCCCCCCCCCCCCCCCCCCCCCCCC(=O)O", "note": "[HSA, hexacosanoic acid]", "values": [{"measurement": "VZV yield in comparison to no treatment", "setting": "[1]", "value": "improved virus yields"}, {"measurement": "VZV yield relative to no treatment", "setting": "[2]", "value": "elevated the yield of VZV"}]}, {"smiles": "CCCCC/C=C\\C/C=C\\CCCCCCCC(=O)O", "note": "[LA, linoleic acid]", "values": [{"measurement": "HCMV yield, fold change relative to no treatment (NT)", "setting": "[3]", "value": "little effect on the yield"}, {"measurement": "Effect of including the fatty acid on the HCMV yield increase given by aminoguanidine", "setting": "[3]; MRC5, 96 h", "value": "reduced"}]}, {"smiles": "CC/C=C\\C/C=C\\C/C=C\\CCCCCCCC(=O)O", "note": "[LLA, α-linolenic acid]", "values": [{"measurement": "HCMV yield, fold change relative to no treatment (NT)", "setting": "[3]", "value": "about 1.2 fold"}, {"measurement": "Effect of including the fatty acid on the HCMV yield increase given by aminoguanidine", "setting": "[3]; MRC5, 96 h", "value": "reduced"}]}, {"smiles": "CCCCCCCC/C=C\\CCCCCCCC(=O)O", "note": "[OA, oleic acid]", "values": [{"measurement": "HCMV yield, fold change relative to no treatment (NT)", "setting": "[3]", "value": "reduced the yield"}, {"measurement": "Effect of including the fatty acid on the HCMV yield increase given by aminoguanidine", "setting": "[3]; MRC5, 96 h", "value": "reduced"}, {"measurement": "Reduction of VZV production, factor", "setting": "[1]; 100 μM", "value": 2, "unit": "fold"}, {"measurement": "Cytotoxicity", "setting": "[4]; absence of αT", "value": "without causing observable cellular toxicity"}]}, {"smiles": "CCCCCCCCCCCCCCCCCCCCCCCCCCCC(=O)O", "note": "[OSA, octacosanoic acid]", "values": [{"measurement": "VZV yield in comparison to no treatment", "setting": "[1]", "value": "improved virus yields"}]}, {"smiles": "N=C(N)NN", "note": "[aminoguanidine]", "values": [{"measurement": "HCMV production relative to no treatment", "setting": "[3]", "value": "enhances the production of HCMV"}, {"measurement": "HCMV yield, fold change relative to no treatment (NT)", "setting": "[3]", "value": "about 2.6 fold"}]}, {"smiles": "CC(C)CCC[C@@H](C)[C@H]1CC[C@H]2[C@@H]3CC=C4C[C@@H](O)CC[C@]4(C)[C@H]3CC[C@]12C", "note": "[cholesterol]", "values": [{"measurement": "HCMV yield, fold change relative to no treatment (NT)", "setting": "[3]", "value": "no effect"}, {"measurement": "Effect of cholesterol on the enhancing effects of fatty acids on HCMV yield", "setting": "[3]; MRC5, 96 h, cholesterol up to about 13 μM", "value": "did not improve, and in some cases inhibited"}]}, {"smiles": "Cc1c(C)c2c(c(C)c1O)CC[C@@](C)(CCC[C@H](C)CCC[C@H](C)CCCC(C)C)O2", "note": "[αT, alpha-tocopherol]", "values": [{"measurement": "HCMV production relative to no treatment", "setting": "[3]", "value": "enhances the production of HCMV"}]}]}
